Assay results as given in the supplement of paper PMC9386025.

What was measured:
Assay in all cases: drug sensitivity score (DSS) (DSS (dimensionless)); higher = more sensitive (stronger drug response)
[1] = system: FIMM-PDC4 (patient-derived ovarian cancer cells); settings: genetic perturbation: none (patient-derived cell culture)
Procedure, shortened: (§1)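 Ovarian cancer cell lines, after at least three days of shRNA induction with 100 ng/ml doxycycline, and patient-derived cultures were plated at 1 000 – 1 500 cells per well into 384-well plates pre-loaded with drugs at five concentrations spanning a 10,000-fold range. Plates were then kept for three days at 37 °C and 5.0 % CO2. Viability was measured as CellTiter-Glo luminescence on a PHERAstar FS, and each drug's dose-response curve was reduced to a drug sensitivity score computed by a previously described method.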

[2] = system: Kuramochi
Procedure, shortened: as §1

[3] = system: FIMM-PDC6 (patient-derived ovarian cancer cells); settings: genetic perturbation: none (patient-derived cell culture)
Procedure, shortened: as §1

[4] = system: OVSAHO
Procedure, shortened: as §1

[5] = system: FIMM-PDC7 (patient-derived ovarian cancer cells); settings: genetic perturbation: none (patient-derived cell culture)
Procedure, shortened: as §1

[6] = system: JHOS2
Procedure, shortened: as §1

[7] = system: FIMM-PDC5 (patient-derived ovarian cancer cells); settings: genetic perturbation: none (patient-derived cell culture)
Procedure, shortened: as §1

[8] = system: FIMM-PDC3 (patient-derived ovarian cancer cells); settings: genetic perturbation: none (patient-derived cell culture)
Procedure, shortened: as §1

[9] = system: FIMM-PDC1 (patient-derived ovarian cancer cells); settings: genetic perturbation: none (patient-derived cell culture)
Procedure, shortened: as §1

[10] = genetic perturbation: DOX-induced PTK7 shRNA knockdown
[11] = genetic perturbation: DOX-induced control shRNA

SMILES | drug sensitivity score [1] | drug sensitivity score [2, 10] | drug sensitivity score [2, 11] | drug sensitivity score [3] | drug sensitivity score [4, 10] | drug sensitivity score [4, 11] | drug sensitivity score [5] | drug sensitivity score [6, 10] | drug sensitivity score [6, 11] | drug sensitivity score [7] | drug sensitivity score [8] | drug sensitivity score [9]
CCNC(=O)c1noc(-c2cc(C(C)C)c(O)cc2O)c1-c1ccc(CN2CCOCC2)cc1 [Luminespib] | 26 | 13.7 | 4.1 | 15.3 | < 0 | 11.3 | 19 | 15.6 | 12.9 | 22.8 | 14.5 | 13.9
CCC1=C[C@@H]2CN(C1)Cc1c([nH]c3ccccc13)[C@@](C(=O)OC)(c1cc3c(cc1OC)N(C)[C@H]1[C@@](O)(C(=O)OC)[C@H](OC(C)=O)[C@]4(CC)C=CCN5CC[C@]31[C@@H]54)C2 [Vinorelbine] | 26.7 | 20.3 | 7.2 | 18.6 | 22.6 | 18.5 | 12.8 | 19.4 | 17.1 | 27.2 | 26.2 | 19.2
CN(CC(=O)N(Cc1ccc(C2CCCCC2)cc1)c1ccc(C(=O)O)cc1)S(=O)(=O)c1c(F)c(F)c(F)c(F)c1F [SH-4-54] | 7 | 6.1 | 4.7 | 7.6 | 5.2 | 5.4 | 9.2 | 4.6 | 3.7 | 5.1 | 6 | 4
O=C(CCCCCCC(=O)Nc1ccccc1)NO [Vorinostat] | 4.9 | 9.45 | 4.8 | 10.1 | 8.3 | 7.2 | 6.3 | 3.2 | 6.1 | 10.4 | 7.9 | 6
CO[C@@H]1[C@H](N(C)C(=O)c2ccccc2)C[C@H]2O[C@]1(C)n1c3ccccc3c3c4c(c5c6ccccc6n2c5c31)C(=O)NC4 [Midostaurin] | 15.7 | 9 | 8.9 | 7.8 | 13.1 | 7.9 | 10.3 | 13.1 | 10.7 | 17.8 | 5.5 | 8.1
COc1cc([C@@H]2c3cc4c(cc3[C@@H](O[C@@H]3O[C@@H]5CO[C@@H](C)O[C@H]5[C@H](O)[C@H]3O)[C@H]3COC(=O)[C@H]23)OCO4)cc(OC)c1O [Etoposide] | 1.8 | 0.5 | 2 | 2.9 | 2.7 | < 0 | 1 | 4.7 | 2.1 | 1.9 | 4.8 | 2.55
Nc1nc2[nH]cnc2c(=S)[nH]1 [Thioguanine] | 6.6 | 9.75 | 7 | 2.9 | 4.9 | 8.1 | 4.7 | 1.9 | 1 | 6.4 | < 0 | 5.75
CC(C)c1cc(C(=O)N2Cc3ccc(CN4CCN(C)CC4)cc3C2)c(O)cc1O [Onalespib] | 15.1 | 7.1 | < 0 | 12.8 | < 0 | 5.4 | 10.6 | 10.3 | 11.4 | 12.5 | 9.4 | 10.4
CC(=O)c1cnc2ccc(-c3cc(Cl)c(O)c(Cl)c3)nc2c1N[C@H]1CC[C@H](CN(C)C)CC1 [OTS167] | 12.3 | 10.1 | 5.8 | 13.9 | 8 | 10.6 | 14.6 | 15.7 | 18.8 | 14.7 | 12.4 | 11.3
NC(=O)/C(=C/n1cnc(-c2cc(C(F)(F)F)cc(C(F)(F)F)c2)n1)c1cncnc1 [Eltanexor] | 19.9 | 12.4 | 17 | 25.8 | 17.8 | 9.5 | 17.8 | 18.9 | 17 | 22.4 | 23.7 | 14.7
Cn1c(Nc2ccc(C(F)(F)F)cc2)nc2cc(Oc3ccnc(-c4ncc(C(F)(F)F)[nH]4)c3)ccc21 [NVP-RAF265] | 2.9 | 0.1 | < 0 | 1.3 | 1.5 | 0.3 | 2.8 | < 0 | 3.8 | 14.6 | 6.7 | 1.4
CN(C)c1cc2c(cc1Sc1nc3c(N)nccc3n1CCNCC(C)(C)C)OCO2 [CUDC-305] | 15.8 | 7.3 | 0.8 | 11.6 | < 0 | 6.3 | 12.7 | 11.5 | 9.9 | 12.8 | 9.8 | 11.5
COc1ccc(C[C@H](NC(=O)[C@H](C)NC(=O)CN2CCOCC2)C(=O)N[C@@H](Cc2ccccc2)C(=O)C2(C)CO2)cc1 (stereo in doubt) [ONX-0914] | 17.6 | 14.6 | 16.4 | 23.8 | 17.6 | 12.3 | 20.3 | 18.3 | 15.5 | 17.4 | 22.7 | 19.9
Cc1nc(Nc2n[nH]c3c2CN(C(=O)N[C@H](CN(C)C)c2ccccc2)C3(C)C)c2sccc2n1 | 16.6 | 12.3 | 8.6 | 14.8 | 11.1 | 15.3 | 11.8 | 16.6 | 13.6 | 20.8 | 14.3 | 9.6
O=C(/C=C\n1cnc(-c2cc(C(F)(F)F)cc(C(F)(F)F)c2)n1)NNc1ccccn1 [Verdinexor] | 11.2 | 4.4 | 5.2 | 11.7 | 6.1 | 3.2 | 11.5 | 11.3 | 7.7 | 11 | 10.9 | 3.7
Nc1ncnc2c1nc(N)n2[C@@H]1O[C@H](CO)[C@@H](O)[C@H]1O [8-amino-adenosine] | 22.7 | 23.3 | 20.1 | 24.8 | 26.2 | 21.1 | 17.8 | 23.4 | 19.8 | 27.9 | 19.1 | 17.4
COc1c(OCCCN2CCOCC2)ccc2c1N=C(NC(=O)c1cnc(N)nc1)N1CCN=C21 [Copanlisib] | 12.4 | 6.95 | 4.6 | 10.2 | 7.8 | 10.5 | 11.1 | 4.4 | 5.8 | 17.3 | 6.2 | 7.3

SMILES | drug sensitivity score [1] | drug sensitivity score [2, 10] | drug sensitivity score [2, 11] | drug sensitivity score [3] | drug sensitivity score [4, 10] | drug sensitivity score [4, 11] | drug sensitivity score [5] | drug sensitivity score [6, 10] | drug sensitivity score [6, 11] | drug sensitivity score [7] | drug sensitivity score [8] | drug sensitivity score [9]
CC(C)NC[C@@H](C(=O)N1CCN(c2ncnc3c2[C@H](C)C[C@H]3O)CC1)c1ccc(Cl)cc1 [Ipatasertib] | 5.9 | 0.35 | < 0 | 5.5 | < 0 | 4.6 | 7.5 | < 0 | 1.3 | 10.3 | 0.8 | 4.2
COc1cc(Nc2ncc3c(n2)-c2ccc(Cl)cc2C(c2c(F)cccc2OC)=NC3)ccc1C(=O)O [Alisertib] | 3.9 | 6.25 | 4.2 | < 0 | 7 | 2.4 | < 0 | 1.9 | 0.9 | 7.2 | 6.2 | 0.85
O=C(O)C(=O)O.[NH-][C@@H]1CCCC[C@H]1[NH-].[Pt+2] [Oxaliplatin] | 5 | 8.65 | 5.8 | 7.8 | 9.9 | 5.9 | 11.5 | 8.2 | 6.2 | 11.2 | 17.3 | 5.4
CCOc1cc2ncc(C#N)c(Nc3ccc(OCc4ccccn4)c(Cl)c3)c2cc1NC(=O)/C=C/CN(C)C [Neratinib] | 11.9 | 0.45 | < 0 | 14.1 | 0.8 | 0.4 | 8.3 | 0.6 | 5.2 | 16.1 | 9.5 | 1.15
CCc1c2c(nc3ccc(O)cc13)-c1cc3c(c(=O)n1C2)COC(=O)[C@]3(O)CC [SN-38] | 19.2 | 21 | 8.6 | 28.9 | 21 | 16.4 | 21.3 | 26.1 | 22.5 | 29.7 | 26.6 | 23.5
CCN(CC)CCCC(C)Nc1c2ccc(Cl)cc2nc2ccc(OC)cc12 (stereo unspecified) [Mepacrine] | 17.1 | 12.7 | 10.8 | 15.9 | 15.2 | 11.7 | 12.3 | 18.8 | 12.1 | 18 | 13.8 | 13.6
COc1cccc2c1C(=O)c1c(O)c3c(c(O)c1C2=O)C[C@@](O)(C(C)=O)C[C@@H]3O[C@H]1C[C@H](N)[C@H](O)[C@H](C)O1 [Daunorubicin] | 8.4 | 4.2 | 4.6 | 7.4 | 8.3 | 4.4 | 9 | 4 | 5.6 | 10.7 | 7.8 | 4.65
CC(C)C[C@@H](C(=O)N[C@H](C(=O)OC1CCCC1)c1ccccc1)[C@H](O)C(=O)NO [Tosedostat] | 9.5 | 0.75 | 0.7 | 11.1 | 3.1 | 6.4 | 6.4 | 29.8 | 14.2 | 12.1 | 14.9 | 12.6
CN(C)C[C@@H]1CCn2cc(c3ccccc32)C2=C(C(=O)NC2=O)c2cn(c3ccccc23)CCO1 [Ruboxistaurin] | 7.8 | 7.25 | 7 | 6.8 | 9.8 | 6 | 8.1 | 6.2 | 6.5 | 11.1 | 8.5 | 6.85
C[C@@]1(C(=O)Nc2ccc(F)nc2)CCCN1c1nc(Nc2cc(C3CC3)n[nH]2)c2cccn2n1 | 11.5 | 5.25 | 5 | 4.1 | 7.2 | 8.9 | 16.6 | 6 | 4.4 | 14.1 | 10.8 | 13.8
O=C(c1ccc(F)c(F)c1Nc1ccc(I)cc1F)N1CC(O)([C@@H]2CCCCN2)C1 [Cobimetinib] | 12.4 | 6.05 | 2.8 | 12 | 9 | 3.9 | 7.4 | 0.8 | 11.1 | 12.7 | 4.8 | < 0
C=CC(=O)Nc1cccc(Nc2nc(Nc3ccc(N4CCN(C(C)=O)CC4)cc3OC)ncc2C(F)(F)F)c1 [Rociletinib] | 10 | 4.75 | 4.6 | 10.3 | 9.1 | 5.1 | 10.7 | 3.6 | 2.1 | 10.3 | 7.6 | 5.2
Cc1cc(Nc2cc(N3CCN(C)CC3)nc(/C=C/c3ccccc3)n2)n[nH]1 [ENMD-2076] | 10.5 | 9.65 | 8.1 | 3.4 | 11.5 | 7.9 | 4.2 | 8.3 | 9.4 | 12.4 | 8.6 | 6
C=CC(=O)Nc1cc(Nc2nccc(-c3cn(C)c4ccccc34)n2)c(OC)cc1N(C)CCN(C)C [Osimertinib] | 11 | 4.8 | 4.3 | 12.5 | 5.9 | 3.3 | 9.6 | 4.1 | 4.1 | 14.4 | 9.5 | 4
CN[C@@H]1C[C@H]2O[C@@](C)([C@@H]1OC)n1c3ccccc3c3c4c(c5c6ccccc6n2c5c31)C(=O)N[C@H]4O [UCN-01] | 26.4 | 12.3 | 16.2 | 24 | 24.7 | 15.2 | 28.4 | 21.2 | 21.5 | 29.6 | 22.2 | 26.5
CCN(CC)Cc1ccc2cc(COC(=O)Nc3ccc(C(=O)NO)cc3)ccc2c1 [Givinostat] | 0.9 | 8.55 | 4.8 | 5.8 | 7.6 | 6.9 | 2.1 | 6 | 5.7 | 7.2 | 6.4 | 5.5
